# Measured values as given in US20130059879A1, “Small Molecule Inhibitors of PFKFB3 and Glycolytic Flux and Their Methods of Use as Anti-Cancer Therapeutics” (UNIVERSITY OF LOUISVILLE RESEARCH FOUNDATION, INC., priority 2010, published 2013).
# Where a name gives a salt, the structure may show the parent alone. Read-outs that look alike come from different tables or passages of the source.
# Columns and labels:
# [1] = tested on: Calu-6; experiment: Cancer cell proliferation, Alamar Blue assay, 72 hours; assay type: cell-based
# Procedure: (§1) The ability of the compounds described herein to kill or inhibit the proliferation of cancer cells was measured using either the MTT assay, or the Alamar Blue assay, or the Cell Titer Glow® assay using 48 or 72 hours exposure. […] The procedures are briefly described below. Cells of the desired tumor cell line were plated at 2×10^5 cells/ml in 96 well plates. Twice the indicated concentrations of the compounds of the invention were added to cells the following day in an equal volume of media. 72 hours later, cells were lysed and subjected to ATP determination using the CellTiter Glo-Luminescent Cell Viability Assay kit (Promega, Madison, Wis.). Experiments were done in triplicate. When using the MTT assay or the Alamar blue assay, the experimental conditions are essentially similar; at the end of the incubation period, 20 microliters of the MTT solution is added per well and the samples are incubated for an additional four hours, rinsed, and the absorbance at 570 nm measured. […] Table 2 lists the IC50 values for the compounds of the invention in several cell lines including Jurkat, Calu-6, NCI-H82, U937, HCT-116, and MDA-MB-231 cancer cell lines.
# [2] = tested on: HCT-116; experiment: as above; assay type: cell-based
# Procedure: as §1
# [3] = tested on: Jurkat; experiment: as above; assay type: cell-based
# Procedure: as §1
# [4] = tested on: MDA-MB-231; experiment: as above; assay type: cell-based; conditions: Homo sapiens
# Procedure: as §1
# [5] = tested on: NCI-H82; experiment: as above; assay type: cell-based
# Procedure: as §1
# [6] = tested on: U937; experiment: as above; assay type: cell-based
# Procedure: as §1
# [7] = Microsomal stability in human liver microsomes; assay type: in vitro ADME
# Procedure: Microsomal stability in vitro in different biologic media (liver microsomes, S9 fraction, hepatocytes) and species is ascertained to evaluate the rate at which a compound undergoes metabolism in the experimental in vitro conditions. Results for some compounds of the invention after a 60 minutes incubation period in human liver microsomes are shown in the Table 6 below. […] Experimental conditions are briefly described here: the stability in human liver microsomes of several compounds was done over […] at 37° C. using pooled mixed gender human liver microsomes. These liver microsomes were prepared at 1.0 mg/ml of microsomal protein in a 100 mM potassium phosphate pH 7.4 buffer with 1 mM NADPH. The media was incubated at 37° C. with the compound in solution in DMSO. The concentration of the compound was followed by LC/MS-MS as a function of time. Samples were assayed at t=0, 15, 30, and 60 minutes. Testosterone was used as a positive control. The same experiment was performed with mouse, rat or dog liver microsomes instead of human liver microsomes.
# [8] = Homo sapiens, NCI-H82, read-out: IC50 NCl-H82
# [9] = 60 min incubation, 1.0 mg/ml microsomal protein, 1 mM NADPH, 37° C.
SMILES,"IC50 ([1]; Homo sapiens, Calu-6)","IC50 ([2]; Homo sapiens, HCT-116)","IC50 ([3]; Homo sapiens, Jurkat)",IC50 [4],"IC50 [5, 8]","IC50 ([6]; Homo sapiens, U-937)",also measured
"COc1cc(C(=O)c2cc3c(ccc4ccccc43)[nH]2)ccn1 [ACT-PFK-115, (3H-Benzo[e]indol-2-yl)-(2-methoxy-pyridin-4-yl)-methanone]",2180 nM,8200 nM,4550 nM,620 nM,6050 nM,1070 nM,"HLM, Mean metabolized (%) ([7]; 0 min): 0.0%; HLM, Mean metabolized (%) [7, 9]: 99.6%"
"O=C(c1ccccc1)c1cc2c3c(ccc2[nH]1)CCCC3 [ACT-PFK-107, Phenyl-(6,7,8,9-tetrahydro-3H-benzo[e]indol-2-yl)-methanone]",7250 nM,> 100000 nM,6900 nM,11600 nM,10100 nM,2850 nM,"HLM, Mean metabolized (%) ([7]; 0 min): 0.0%; HLM, Mean metabolized (%) [7, 9]: 100.0%"
"COc1cc(C(=O)c2cc3c(cc(OC)c4ccccc43)[nH]2)ccc1N [ACT-PFK-131, (4-Amino-3-methoxy-phenyl)-(5-methoxy-3H-benzo[e]indol-2-yl)-methanone]",> 100000 nM,,> 100000 nM,,> 100000 nM,,
"CS(=O)(=O)Nc1ccc(C(=O)c2cc3c(ccc4ccccc43)[nH]2)cc1 [ACT-PFK-133, N-[4-(3H-Benzo[e]indole-2-carbonyl)-phenyl]-methanesulfonamide]",40800 nM,,2350 nM,,11900 nM,,
"O=C(c1ccccc1)c1cc2c(ccc3cccnc32)[nH]1 [ACT-PFK-102, Phenyl-(7H-pyrrolo[2,3-h]quinolin-8-yl)-methanone]",> 100000 nM,,> 100000 nM,,> 100000 nM,> 100000 nM,
"COc1cccc(NC(=O)c2cc3c(ccc4ccccc43)[nH]2)c1 [ACT-PFK-127, 3H-Benzo[e]indole-2-carboxylic acid (3-methoxy-phenyl)-amide]",1020 nM,,780 nM,,755 nM,,
"COc1cc(C(=O)c2cc3c(ccc4ccccc43)[nH]2)ccc1N [ACT-PFK-129, (4-Amino-3-methoxy-phenyl)-(3H-benzo[e]indol-2-yl)-methanone]",355 nM,,230 nM,,370 nM,,
"O=C(c1cc2c(cc(F)c3ccccc32)[nH]1)C1CCCCC1 [ACT-PFK-121, Cyclohexyl-(5-fluoro-3H-benzo[e]indol-2-yl)-methanone]",79 nM,,115 nM,,335 nM,,
"O=C(c1ccccc1)c1cc2c(cc(F)c3ccccc32)[nH]1 [ACT-PFK-104, (5-Fluoro-3H-benzo[e]indol-2-yl)-phenyl-methanone]",200 nM,320 nM,118 nM,5950 nM,310 nM,,"HLM, Mean metabolized (%) ([7]; 0 min): 0.0%; HLM, Mean metabolized (%) [7, 9]: 80%"
"COC(=O)c1cc(C(=O)c2cc3c(ccc4ccccc43)[nH]2)ccc1OCc1ccccc1 [ACT-PFK-113, 5-(3H-Benzo[e]indole-2-carbonyl)-2-benzyloxy-benzoic acid methyl ester]",28500 nM,> 100000 nM,28000 nM,> 100000 nM,> 100000 nM,26800 nM,
"O=C(c1cc2c(ccc3ccccc32)[nH]1)c1ccccc1O [ACT-PFK-099, (3H-Benzo[e]indol-2-yl)-(2-hydroxy-phenyl)-methanone]",230 nM,495 nM,410 nM,,680 nM,76 nM,
"COc1ccc(C(=O)c2cc3c(ccc4ccccc43)[nH]2)cc1 [ACT-PFK-093, (3H-Benzo[e]indol-2-yl)-(4-methoxy-phenyl)-methanone]",,,,,,,"HLM, Mean metabolized (%) ([7]; 0 min): 0.0%; HLM, Mean metabolized (%) [7, 9]: 95%"
"Nc1ccc(NC(=O)c2cc3c(ccc4ccccc43)[nH]2)cc1 [ACT-PFK-134, 3H-Benzo[e]indole-2-carboxylic acid (4-amino-phenyl)-amide]",2450 nM,,3300 nM,,3450 nM,,
"O=C(c1ccc(O)c(F)c1)c1cc2c(cc(F)c3ccccc32)[nH]1 [ACT-PFK-122, (5-Fluoro-3H-benzo[e]indol-2-yl)-(3-fluoro-4-hydroxy-phenyl)-methanone]",70 nM,,235 nM,,320 nM,,
"O=C(c1ccncc1)c1cc2c(ccc3ccccc32)[nH]1 [ACT-PFK-095HCl, HCl salt of (3H-Benzo[e]indol-2-yl)-pyridin-4-yl-methanone]",,,,,,,IC50 [1]: 390 nM; IC50 [2]: 850 nM; IC50 [3]: 440 nM; IC50 ([5]; read-out: IC50 NCl-H82): 305 nM; IC50 [6]: 20 nM
"COC(=O)c1ccc(C(=O)c2cc3c(ccc4ccccc43)[nH]2)cc1 [ACT-PFK-110, 4-(3H-Benzo[e]indole-2-carbonyl)-benzoic acid methyl ester]",59500 nM,> 100000 nM,> 100000 nM,> 100000 nM,> 100000 nM,> 100000 nM,
"O=C(c1cc[n+]([O-])cc1)c1cc2c(ccc3ccccc32)[nH]1 [ACT-PFK-106, (3H-benzo[e]indol-2-yl)-(1-oxy-pyridin-4-yl)-methanone]",8900 nM,38500 nM,21000 nM,28000 nM,15000 nM,3150 nM,
"COc1cc(C(=O)c2cc3c(cc(O)c4ccccc43)[nH]2)ccc1N [ACT-PFK-130, (4-Amino-3-methoxy-phenyl)-(5-hydroxy-3H-benzo[e]indol-2-yl)-methanone]",1650 nM,,1130 nM,,1450 nM,,
"O=C(Nc1ccccc1)c1cc2c(ccc3ccccc32)[nH]1 [ACT-PFK-126, 3H-Benzo[e]indole-2-carboxylic acid phenylamide]",1100 nM,,850 nM,,840 nM,,
"COc1cccc(C(O)c2cc3c(ccc4ccccc43)[nH]2)c1 (stereo not drawn) [ACT-PFK-124, (3H-Benzo[e]indol-2-yl)-(3-methoxy-phenyl)-methanol]",10400 nM,,8800 nM,,11200 nM,,
"CN(C)c1ccc(C(=O)c2cc3c(ccc4ccccc43)[nH]2)cc1 [ACT-PFK-128, (3H-Benzo[e]indol-2-yl)-(4-dimethylamino-phenyl)-methanone]",> 100000 nM,,> 100000 nM,,> 100000 nM,,
"O=C(c1cccc(CO)c1)c1cc2c(ccc3ccccc32)[nH]1 [ACT-PFK-120, (3H-Benzo[e]indol-2-yl)-(3-hydroxymethyl-phenyl)-methanone]",55 nM,,155 nM,,270 nM,,
"Cc1cc2[nH]c(C(=O)c3ccccc3)cc2c2ccccc12 [ACT-PFK-101, (5-Methyl-3H-benzo[e]indol-2-yl)-phenyl-methanone]",> 100000 nM,,> 100000 nM,,> 100000 nM,> 100000 nM,
"OC(c1ccncc1)c1cc2c(ccc3ccccc32)[nH]1 (stereo not drawn) [ACT-PFK-125, (3H-Benzo[e]indol-2-yl)-pyridin-4-yl-methanol]",39500 nM,,22700 nM,,20300 nM,,
"O=C(c1ccc(OCc2ccccc2)c(C(=O)O)c1)c1cc2c(ccc3ccccc32)[nH]1 [ACT-PFK-114, 5-(3H-Benzo[e]indole-2-carbonyl)-2-benzyloxy-benzoic acidmethanone]",> 100000 nM,> 100000 nM,> 100000 nM,> 100000 nM,> 100000 nM,> 100000 nM,
"O=C(c1cccc(O)c1)c1cc2c(ccc3ccccc32)[nH]1 [ACT-PFK-103, (3H-Benzo[e]indol-2-yl)-(3-hydroxy-phenyl)-methanone]",130 nM,360 nM,110 nM,6400 nM,405 nM,,
